In US5179206A, “Substituted 3-aminosydnone imines” (Cassella Aktiengellschaft, priority 1989, dated 1993):
Structures can show the parent of a compound that is named as a salt. Where two headings read alike, the source gives them in different places.

Tested on: pulmonary artery of the guinea pig (spiral strips)
Test: Relaxant effect on potassium-depolarized, CaCl2-contracted spiral strips of the pulmonary artery of the guinea pig (modified method of Godfraind and Kaba and of Schuman et al)
Conditions: depolarized using 40 mmol/l of potassium, contraction induced by 0.5 mmol/l of CaCl2, average value of 4 to 6 vessel strips, read-out: IC50: concentration of the test substance which inhibits the contraction by 50%
Procedure: The pharmacological action of the compounds of the formula I was determined by a modified method of Godfraind and Kaba (Arch.Int. Pharmacodyn. Ther. 196, (Suppl.) 35 to 49, 1972) and of Schuman et al (Naunyn-Schmiedeberg's Arch. Pharmacol. 289, 409 to 418, 1975). In this connection, spiral strips of the pulmonary artery of the guinea pig are depolarized using 40 mmol/l of potassium after equilibration in calcium-free Tyrode solution. An addition of 0.5 mmol/l of CaCl2 then induces a contraction. The relaxant effect of the test substance is determined by cumulative addition in semilogarithmic graduated concentrations. The concentration of the test substance which inhibits the contraction by 50% (=IC50, mol/l) is determined from the concentration-effect curve (abscissa: -log mol/l of test substance, ordinate: % inhibition of the maximum contraction, average value of 4 to 6 vessel strips).

Row | IC50 (Cavia porcellus) | IC50 | SMILES
1 | 2 µM |  | CC1CCCC(C)N1[n+]1[n-]oc(=N)c1CCc1ccccc1 (stereo not shown) [Example 8, 3-(2,6-Dimethylpiperidino)-4-(2-phenylethyl)sydnone imine hydrochloride]
2 |  | > 300 µM | CCOC(=O)[N-]c1cn(N2CCOCC2)n[o+]1 [Molsidomine, N-ethoxycarbonyl-3-morpholino-sydnone imine, reference compound]
3 | 2.3 µM |  | CC1CCCC(C)N1[n+]1[n-]oc(=N)c1Cc1ccccc1 (stereo not shown) [Example 6, 4-Benzyl-3-(2,6-dimethylpiperidino)sydnone imine hydrochloride]
4 | 2.4 µM |  | CCCCCCc1c(=N)o[n-][n+]1N1C(C)CCCC1C (stereo not shown) [Example 3, 3-(2,6-Dimethylpiperidino)-4-hexylsydnone imine hydrochloride]
